One series deals with NCI-N87 cells. Briefly: Annexin V-PE/7-AAD apoptosis assay (flow cytometry), NCI-N87. The conditions noted are these: 1000 nM, 24 h. In kind it is cell-based, human. On the procedure:
Apoptosis was measured by staining with phycoerythrin (PE)-annexin V and 7-amino-actinomycin (7-AAD) (BD Biosciences, Erembodegem, Belgium) for 15 min at room temperature in the dark, followed by flow cytometry (BD Biosciences) within 1 h. Apoptosis was analyzed with FlowJo 7.6 software (FlowJo, LLC, Ashland, Oregon).
Cells were treated with gimatecan (0–1 µM) and irinotecan (0–1 µM) for 24 h and stained with Annexin V-PE/7-AAD. Sums of percentages of early apoptosis (Q3) and late apoptosis (Q2) were calculated as the total apoptosis ratios. c, d Pro- and anti-apoptotic proteins including Bcl-2, Bak, PARP and cleaved PARP were assessed by western-blotting in SNU-1 and NCI-N87 cells. Western-blotting bands were quantified and normalized by ImageJ. […] They are left out because no substance is present, and they are also barely readable.
For orientation: Flow cytometry measures light scatter and fluorescence of single cells or particles in a stream.

The test system of series [1] is normal immortalized gastric epithelial cell line. Nature of the series: Growth inhibition of normal gastric epithelial cells. The class given is cell-based. To be noted: data not shown.
Another series deals with ABCG2. On the set-up: method as in earlier work. The conditions noted are these: ref 32 (Marchetti et al., 2007); cited from earlier work.

Structures are written as SMILES.

For `CC[C@@]1(O)C(=O)OCc2c1cc1n(c2=O)Cc2c-1nc1ccccc1c2/C=N/OC(C)(C)C` [Gimatecan, 7-t-butoxyiminomethylcamptothecin], the “proportion of apoptotic cells” value in the series on NCI-N87 cells is listed as 12.29 ± 2.24%. In series [1], the “growth inhibition in normal cells” value is on record as “weak growth inhibition”. Moreover, in the series on ABCG2, the “resistance resulting from ABCG2 expression” value is “eight to tenfold”.

These data come from article PMC5729429, “Gimatecan exerts potent antitumor activity against gastric cancer in vitro and in vivo via AKT and MAPK signaling pathways” (Journal of Translational Medicine, 2017).
